US20250171434A1, “SEC61 INHIBITORS AND USE THEREOF” (KEZAR LIFE SCIENCES, INC., priority 2022, published 2025)
Where two headings read alike, the source gives them in different places.

What was measured:
[1] = test system: PD1-ss+10aa/Gaussia Luciferase; assay: Dox-Induced PD1-ss-Gluc Assay; type: cell-based
Method in brief: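 Compounds were added in DMSO/media with doxycycline and incubated at 37 °C, 5% CO2, on 293 T-REx cells plated one day earlier. These cells stably express, under tetracycline-regulated control, a Gaussia luciferase fused to the PD1 signal peptide plus 10 residues. Structures drawn without stereochemistry were tested as stereoisomer mixtures.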

[2] = test system: IL-2-FL/Gaussia Luciferase; assay: Dox Inducible IL2-FL-Gluc Assay; type: cell-based
Method in brief: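 Compounds in DMSO/medium with doxycycline were applied to a 293 T-REx stable line expressing an IL-2 (aa 1-153)–Gaussia luciferase fusion under tetracycline-regulated control, cells seeded one day earlier; incubation at 37 °C, 5% CO2. Structures drawn without stereochemistry were tested as stereoisomer mixtures.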

CD47(ss + 10)Gluc = assay: Dox-Induced CD47-ss-Gluc Assay; type: cell-based
[3] = test system: IL6R-ss+10aa/Gaussia Luciferase; assay: Dox-induced IL-6R-ss-Gluc Assay; type: cell-based
Method in brief: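 Flp-In 293 T-REx cells stably carrying a doxycycline-inducible IL6R signal sequence+10 aa fused to Gaussia luciferase. Cells plated the day before; compound dilutions added in DMSO/media containing doxycycline and incubated at 37 °C, 5% CO2.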

[4] = test system: multiple myeloma cell line NCI-H929; assay: H929 Cell Viability Assay; type: cell-based, human; details: Homo sapiens
Method in brief: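 Luminescent CellTiter-Glo read-out of viability after a 48 h exposure (37° C, 5% CO2) of NCI-H929 myeloma cells to compound dilutions in RPMI 1640 plus 10% FBS. Data for structures drawn without stereochemistry refer to stereoisomer mixtures.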

[5] = test system: multiple myeloma cell line U266B1; assay: U266 Cell Viability Assay; type: cell-based; details: Homo sapiens
Method in brief: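 CellTiter-Glo luminescence was read after a 48 h compound exposure (37 °C, 5% CO2) of human U266B1 myeloma cells grown in 10% FBS-supplemented RPMI 1640. Data for structures shown without defined stereochemistry refer to stereoisomer mixtures.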

[6] = Liver Microsome Stability Assay, mouse; type: in vitro ADME; details: mouse liver microsomes 1.0 mg/mL, 1.0 uM compound, 37° C., 1 mM NADPH
Method in brief: (§1)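 1.0 uM cpd, 0.4% DMSO, 1.0 mg/mL microsomes, 0.1 M KPi, 37° C, ±1 mM NADPH; quench 0 and 30 min.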

[7] = Liver Microsome Stability Assay, rat; type: in vitro ADME; details: rat liver microsomes 1.0 mg/mL, 1.0 uM compound, 37° C., 1 mM NADPH
Method in brief: as §1

[8] = Liver Microsome Stability Assay, monkey; type: in vitro ADME; details: monkey liver microsomes 1.0 mg/mL, 1.0 uM compound, 37° C., 1 mM NADPH
Method in brief: as §1

[9] = Liver Microsome Stability Assay, human; type: in vitro ADME; details: human liver microsomes 1.0 mg/mL, 1.0 uM compound, 37° C., 1 mM NADPH
Method in brief: as §1

[10] = Flp-In 293 T-REx cells, 24 hours with doxycycline; Table 1; read-out: 24 hr Dox Inducible PD1ssGluc 293FRT/TO: Mean IC50
[11] = Flp-In 293 T-REx cells, 24 hours with doxycycline; Table 1; read-out: 24 hr Dox Inducible IL2FLGluc 293FRT/TO: Mean IC50
[12] = ratio of IC50s IL2/PD1; Table 1
[13] = Flp-In 293 T-REx cells, 24 hours with doxycycline; Table 1; read-out: 24 hr Dox Inducible CD47(ss + 10)Gluc 293FRT/TO: Mean IC50
[14] = Flp-In 293 T-REx cells, 24 hours with doxycycline; Table 1; read-out: 24hr Dox Inducible IL6R(ss + 10)Gluc 293FRT/TO: Mean IC50
[15] = ratio of IC50s IL6R/PD1; Table 1
[16] = NCI-H929 cells, 48 hours, Celltiter-Glo, read-out: 48 hr H929 Viability Celltiter-Glo: Mean EC50
[17] = U-266, U266B1 cells, 48 hours, Celltiter-Glo, read-out: 48 hr U266 Viability Celltiter-Glo: Mean EC50
[18] = read-out: 24 hr Dox Inducible PD1ssGluc 293FRT/TO: Mean IC50; Flp-In 293 T-REx cells, 24 hours with doxycycline; Table 1
[19] = read-out: 24 hr Dox Inducible IL2FLGluc 293FRT/TO: Mean IC50; Flp-In 293 T-REx cells, 24 hours with doxycycline; Table 1
[20] = read-out: 24 hr Dox Inducible CD47(ss + 10)Gluc 293FRT/TO: Mean IC50; Flp-In 293 T-REx cells, 24 hours with doxycycline; Table 1
[21] = read-out: 24hr Dox Inducible IL6R(ss + 10)Gluc 293FRT/TO: Mean IC50; Flp-In 293 T-REx cells, 24 hours with doxycycline; Table 1
[22] = NCI-H929, 48 h, read-out: 48 hr H929 Viability Celltiter-Glo: Mean EC50 (nM)
[23] = U-266, 48 h, read-out: 48 hr U266 Viability Celltiter-Glo: Mean EC50 (nM)

| SMILES | IC50 [1, 10] [µM] | IC50 [2, 11] [µM] | IC50 (CD47(ss + 10)Gluc; [13]) [µM] | IC50 [3, 14] [µM] | EC50 [4, 16] [nM] | EC50 [5, 17] [nM] | Liver Microsome Stability (Multiple Species): Mouse - % Remaining after 30 min w/ NADPH (%) [6] [%] | Liver Microsome Stability (Multiple Species): Rat - % Remaining after 30 min w/ NADPH (%) [7] [%] | Liver Microsome Stability (Multiple Species): Monkey - % Remaining after 30 min w/ NADPH (%) [8] [%] | Liver Microsome Stability (Multiple Species): Human - % Remaining after 30 min w/ NADPH (%) [9] [%] | 24 hr Dox Inducible IL2FLGluc 293FRT/TO: IL2/PD1 [2, 12] | 24hr Dox Inducible IL6R(ss + 10)Gluc 293FRT/TO: IL6R/PD1 [3, 15] | IC50 [1, 18] [µM] | IC50 [2, 19] [µM] | IC50 (CD47(ss + 10)Gluc; [20]) [µM] | IC50 [3, 21] [µM] | EC50 [4, 22] [nM] | EC50 [5, 23] [nM] |
| --- | --- | --- | --- | --- | --- | --- | --- | --- | --- | --- | --- | --- | --- | --- | --- | --- | --- | --- |
| O=C(Nc1nc(/C=C/c2cn(C(F)F)cn2)cs1)c1cc(Cl)cn1Cc1ccnc(F)c1 [Compound A5, (E)-4-chloro-N-(4-(2-(1-(difluoromethyl)-1H-imidazol-4-yl)vinyl)thiazol-2-yl)-1-((2-fluoropyridin-4-yl)methyl)-1H-pyrrole-2-carboxamide] | – | – | – | – | – | – | 73 | 42 | 2 | 4 | >57 | >57 | 0.436 | > 25 | > 25 | > 25 | 10100 | 16800 |
| CC(C(F)F)n1cnc(/C=C/c2csc(NC(=O)c3cc(Cl)cn3Cc3ccnc(F)c3)n2)c1 (stereo not drawn) [Compound A4, (E)-4-chloro-N-(4-(2-(1-(1,1-difluoropropan-2-yl)-1H-imidazol-4-yl)vinyl)thiazol-2-yl)-1-((2-fluoropyridin-4-yl)methyl)-1H-pyrrole-2-carboxamide] | – | – | – | – | – | – | 80 | 73 | 4 | 3 | 21 | 11 | 0.604 | 12.7 | 6.23 | 6.77 | > 23300 | > 25000 |
| O=C(Nc1nc(/C=C/c2ncoc2C(F)(F)F)cs1)c1cc(Cl)cn1Cc1ccnc(F)c1 [Compound A8, (E)-4-chloro-1-((2-fluoropyridin-4-yl)methyl)-N-(4-(2-(5-(trifluoromethyl)oxazol-4-yl)vinyl)thiazol-2-yl)-1H-pyrrole-2-carboxamide] | 0.129 | 1.82 | 1.74 | 1.96 | 7440 | 12800 | 86 | 47 | 68 | 72 | 14 | 15 | – | – | – | – | – | – |
| O=C(Nc1nc(/C=C/c2ncn(C3CC3)c2Cl)cs1)c1cc(O)cn1Cc1ccnc(F)c1 [Compound A18, (E)-N-(4-(2-(5-chloro-1-cyclopropyl-1H-imidazol-4-yl)vinyl)thiazol-2-yl)-1-((2-fluoropyridin-4-yl)methyl)-4-hydroxy-1H-pyrrole-2-carboxamide] | 0.295 | 7 | 6.41 | 5.53 | 24700 | > 25000 | 33 | 10 | 2 | 1 | 24 | 19 | – | – | – | – | – | – |

The next lines start with results.

| IC50 [1, 10] [µM] | IC50 [2, 11] [µM] | IC50 (CD47(ss + 10)Gluc; [13]) [µM] | IC50 [3, 14] [µM] | EC50 [4, 16] [nM] | EC50 [5, 17] [nM] | Liver Microsome Stability (Multiple Species): Mouse - % Remaining after 30 min w/ NADPH (%) [6] [%] | Liver Microsome Stability (Multiple Species): Rat - % Remaining after 30 min w/ NADPH (%) [7] [%] | Liver Microsome Stability (Multiple Species): Monkey - % Remaining after 30 min w/ NADPH (%) [8] [%] | Liver Microsome Stability (Multiple Species): Human - % Remaining after 30 min w/ NADPH (%) [9] [%] | SMILES | 24 hr Dox Inducible IL2FLGluc 293FRT/TO: IL2/PD1 [2, 12] | 24hr Dox Inducible IL6R(ss + 10)Gluc 293FRT/TO: IL6R/PD1 [3, 15] | IC50 [1, 18] [µM] | IC50 [2, 19] [µM] | IC50 (CD47(ss + 10)Gluc; [20]) [µM] | IC50 [3, 21] [µM] | EC50 [4, 22] [nM] | EC50 [5, 23] [nM] |
| --- | --- | --- | --- | --- | --- | --- | --- | --- | --- | --- | --- | --- | --- | --- | --- | --- | --- | --- |
| 0.031 | > 25 | 5.01 | 3.76 | > 25000 | > 25000 | 74 | 41 | 28 | 52 | COc1cc(C(=O)Nc2nc(/C=C/c3ncn(C4CC4)c3Cl)cs2)n(Cc2ccnc(F)c2F)c1 [Compound A20] | >810 | 123 | – | – | – | – | – | – |
| 0.004 | > 25 | 2.21 | 1.26 | 22700 | > 25000 | 82 | 65 | 25 | 10 | O=C(Nc1nc(/C=C/c2ncn(C3CC3)c2Cl)cs1)c1cc(SC(F)(F)F)cn1Cc1ccnc(F)c1 [Compound A31, (E)-N-(4-(2-(5-chloro-1-cyclopropyl-1H-imidazol-4-yl)vinyl)thiazol-2-yl)-1-((2-fluoropyridin-4-yl)methyl)-4-((trifluoromethyl)thio)-1H-pyrrole-2-carboxamide] | >6300 | 317 | – | – | – | – | – | – |
| 0.008 | 11.5 | 5.53 | 9.97 | > 25000 | > 25000 | 77 | 30 | 12 | 20 | Cc1cnc(F)cc1Cn1cc(OC(F)F)cc1C(=O)Nc1nc(/C=C/c2ncn(C3CC3)c2Cl)cs1 [Compound A24, (E)-N-(4-(2-(5-chloro-1-cyclopropyl-1H-imidazol-4-yl)vinyl)thiazol-2-yl)-4-(difluoromethoxy)-1-((2-fluoro-5-methylpyridin-4-yl)methyl)-1H-pyrrole-2-carboxamide] | 1100.0 | 1283 | – | – | – | – | – | – |
